These results are taken from US10450549B2, “Aryloxyphenoxypropionate tolerance in turfrgass species and use of AAD1 as a selectable marker” (Dow AgroSciences, LLC, priority 2004, dated 2019).

In one experiment the target is T1, AAD1 (v1) (Sphingobium herbicidovorans, UniProt Q8KSC8).
T1 construct: made in house; host or cells: E. coli BL-21 Star (DE3), plasmid pDAB3203
Description: Colorimetric phenol detection assay of AAD1 (v1) activity (purified enzyme or E. coli extract). Format: biochemical. The conditions noted are these: for A510, AAD1 (10x): 10 μg purified AAD1 (v1) per 0.16 ml assay; for activity of AAD1 (v1) E. coli extract on substrate: 0.5 mM substrate, 4 μl extract; for activity of purified AAD1 (v1) on substrate: 1 mM substrate, 1 or 10 μg enzyme.

The target of the next experiment is AAD2 (v1) (Bradyrhizobium diazoefficiens, UniProt Q89UC4). Description: Colorimetric phenol assay of AAD2 (v1) E. coli extract / partially purified enzyme. Format: biochemical, Bradyrhizobium japonicum. The conditions noted are these: for A510 AAD2: substrate 0.5 mM, 15 min, 25 mM MOPS pH 6.8, 3 μl AAD2 extract (42 μg protein).
The test system of experiment [1] is T4 Arabidopsis homozygous for AAD1 (v3) (line AAD1.01.315.076). Description: Foliar-applied auxinic herbicides on homozygous T4 AAD1 (v3) Arabidopsis, % injury 14 DAT. Format: in vivo, Arabidopsis thaliana. The conditions noted are these: AAD1.01.315.076.T4 homozygous AAD1 plants. As for the experimental part: (§1) The ability of AAD1 (v3) to provide resistance to other aryloxyphenoxyalkanoate auxin herbicides in transgenic Arabidopsis was determined by foliar application of various substrates described in Example 6.8. T4 generation Arabidopsis seed, homozygous for AAD1 (v3) (line AAD1.01.315.076) was stratified, and sown into selection trays much like that of Arabidopsis (Example 6.4). A transformed-control line containing PAT and the insect resistance gene Cry1F was planted in a similar manner. Seedlings were transferred to individual 3-inch pots in the greenhouse. All plants were sprayed with the use of a track sprayer set at 187 L/ha. […] All applications were formulated in 200 mM Hepes buffer (pH 7.5). Each treatment was replicated 3-4 times. Plants were evaluated at 3 and 14 days after treatment and are averaged over two experiments.

The next experiment deals with wt ARBTH. Description: In vitro plate test of herbicide cross resistance: wild-type Arabidopsis. Type of experiment: in vivo, Arabidopsis thaliana. To be noted: 7 days. How it is done:
(§2) The ability of AAD1 (v3) to provide resistance to other aryloxyphenoxyalkanoate herbicides in transgenic Arabidopsis was determined using a modified in vitro plate assay. Seeds from wild-type Arabidopsis thaliana as well as Arabidopsis thaliana containing the plant optimized AAD1 (v3) gene (T4 homozygous plants id=PAAD1.315.064) were sterilized by agitating for 10 min in a 50% bleach solution. These seeds were then rinsed four times with sterile water to remove the bleach.
(§3) Dose response assays utilized a nutrient media (see below) supplemented with various rates of test compounds. The test compounds were added to the heated media (55° C.) as concentrated solutions in DMSO. Control wells had the appropriate amount of DMSO without any additional compound. The final concentration of DMSO never exceeded 1% (v/v). After thorough mixing, a 6 mL aliquot of the warm media containing the appropriate concentration of compound was added to each well of a 6-well, flat bottom, polystyrene tissue culture tray (Falcon 353046, Becton Dickson and Company, Franklin Lakes, N.J.). After the media solidified, approximately 20 to 30 Arabidopsis seeds were applied on top of the solidified media and the remaining 2 mL of media was poured over the seeds. The plates were lightly agitated to disperse the seeds, covered and allowed to cool until the media had completely solidified. The plates were incubated for 7 days at 25° C. under continual fluorescent lighting (75 μE m^−2 s^−1). Nutrient Media Composition was as described in Example 2.2 and in Somerville and Orgen (1982).
(§4) Assessment of Growth Reduction. The apical portion of the Arabidopsis plants grown in the treated media was assessed visually relative to the apical portion of the plants grown in the media containing only DMSO. Values were recorded as % growth reduction. Assessments of root growth inhibition of the Arabidopsis plants grown in the treated media were achieved by carefully extracting the plants from the media and measuring the length of the root. These root lengths were then compared to the root length of the control plants to determine a % growth reduction. A minimum of five plants were assessed for each treatment. The values recorded are an average of all the plants assessed. The calculated concentration to reach 50% inhibition effect (I50) were determined for both root and shoots of wildtype and AAD1-transformed Arabidopsis. The ratios of resistant to sensitive biotypes are included in Table 19. A ratio>2 for both root and shoot measurements generally signifies significant resistance. The higher the ratio, the greater the level of resistance. […] The broad phenoxy auxin resistance is the first reported in planta.

In experiment [2] the test system is transformed-control line containing PAT and Cry1F. Description: Foliar-applied auxinic herbicides on control (PAT/Cry1F, wildtype) Arabidopsis, % injury 14 DAT. The conditions noted are these: PatCry1f - Control. Type of experiment: in vivo, Arabidopsis thaliana. How it is done:
as §1

The subject of another experiment is PAAD1.315.064 ARBTH. Description: In vitro plate test of herbicide cross resistance: homozygous T4 AAD1 (v3) Arabidopsis. Type of experiment: in vivo, Arabidopsis thaliana. To be noted: for PAAD1.315.064 ARBTH root 150 / PAAD1.315.064 T3 ARBTH shoot 150: 7 days. As for the experimental part:
as §2, §3, §4

Where [3] appears, read: substrate 0.5 mM, 15 min, 25 mM MOPS pH 6.8, 4 μl AAD1 (32 μg protein) extract.
[4] abbreviates: Table 4, substrate 1 mM, 1 μg purified AAD1 (v1) per 0.16 ml assay.
Where [5] appears, read: resistant to sensitive biotype, >2 signifies resistance.

As for `O=S(=O)(O)COc1ccc(Cl)cc1Cl` [2,4-D sulfonate], on AAD1 (v1) (another test), the “phenol produced by AAD1 (v1) relative to 2,4-D” value is on record as approximately 25%. Also, the “AAD2 (v1) activity on substrate” value on AAD2 (v1) (E. coli extract) is recorded as “little or no detectable phenol”.

On to `CC(Oc1ccc(Oc2ncc(C(F)(F)F)cc2Cl)cc1)C(=O)O` (racemic) [haloxyfop], for which the “A510, AAD1” value on AAD1 (v1) (setting [3]) came to 0.1. In addition, the “A510 AAD2” value on AAD2 (v1) stood at 0.3.

For `CC(Oc1ccc(Oc2ccc(C#N)cc2F)cc1)C(=O)O` (racemic) [(R,S)- cyhalofop], the “A510, AAD1” value at AAD1 (v1) (setting [4]) is 0.215; at AAD1 (v1) (setting [3]), 0.12. Also, the “A510, AAD1 (10x)” value at AAD1 (v1) (Table 4, substrate 1 mM) is given as 1.815. In addition, the “A510 AAD2” value on AAD2 (v1) came to 0.1.

Regarding `O=C(O)COc1cc(Cl)c(Cl)cc1Cl` [2,4,5-T], the “Ave % Injury 14DAT” value in experiment [1] (8.75 g ae/ha foliar) came out at 0%; in experiment [1] (17.5 g ae/ha foliar), 3%; in experiment [1] (35 g ae/ha foliar), 0%; in experiment [1] (70 g ae/ha foliar) it was 3%; in experiment [1] (140 g ae/ha foliar), 0%; in experiment [1] (280 g ae/ha foliar), 0%. The “Ave % Injury 14DAT” value in experiment [1] (560 g ae/ha foliar) stood at 17%; in experiment [1] (1120 g ae/ha foliar), 3%; in experiment [2] (8.75 g ae/ha foliar), 0%; in experiment [2] (17.5 g ae/ha foliar), 20%; in experiment [2] (35 g ae/ha foliar) it was 43%; in experiment [2] (70 g ae/ha foliar) it was 85%. In addition, the “Ave % Injury 14DAT” value in experiment [2] (140 g ae/ha foliar) was found to be 95%; in experiment [2] (280 g ae/ha foliar), 98%; in experiment [2] (560 g ae/ha foliar), 100%; in experiment [2] (1120 g ae/ha foliar) it was 100%. Further, the “wt ARBTH root 150” value in the experiment with wt ARBTH is listed as less than 0.01 ppm. For the same compound, in the experiment on wt ARBTH, the “wt ARBTH shoot 150” value was 1.5 ppm. For the same compound, the shoot ratio with PAAD1.315.064 ARBTH (setting [5]) was 6.67. Moreover, in the experiment on PAAD1.315.064 ARBTH, the “PAAD1.315.064 ARBTH root 150” value was less than 0.01 ppm. For the same compound, the “PAAD1.315.064 T3 ARBTH shoot 150” value in the experiment on PAAD1.315.064 ARBTH is reported as 10 ppm.

As to `C[C@@H](Oc1ccc(Oc2ccc(C#N)cc2F)cc1)C(=O)O` [(R)- cyhalofop], the “A510, AAD1” value came out at 0.222 on AAD1 (v1) (setting [4]) and 0.14 on AAD1 (v1) (setting [3]). Besides, the “A510, AAD1 (10x)” value on AAD1 (v1) (Table 4, substrate 1 mM) came out at 1.989. The “A510 AAD2” value at AAD2 (v1) stood at 0.

As to `CC(Oc1ccc(Oc2ncc(C(F)(F)F)cc2Cl)cc1)C(=O)O` (stereo not drawn) [compound 8671], at AAD1 (v1) (setting [3]), the “A510, AAD1” value was determined as 0.12. The “A510 AAD2” value on AAD2 (v1) came to 0.

As for `C[C@H](Oc1ccc(Oc2ccc(C#N)cc2F)cc1)C(=O)O` [(S)- cyhalofop], the “activity of AAD1 (v1) E. coli extract on substrate” value on AAD1 (v1) (15 min) was “no activity”. Also, at AAD1 (v1), the “activity of purified AAD1 (v1) on substrate” value is on record as “Minimal activity”. Moreover, the entries for the “A510, AAD1” value at AAD1 (v1) (setting [4]) and at AAD1 (v1) (setting [3]) were 0.003 and 0, respectively. The “A510, AAD1 (10x)” value on AAD1 (v1) (Table 4, substrate 1 mM) is reported as 0.017. For the same compound, at AAD2 (v1), the “A510 AAD2” value is 0.15.

As to `C[C@@H](Oc1ccc(Oc2nc3ccc(Cl)cc3o2)cc1)C(=O)O` [(R)- fenoxaprop], the “A510, AAD1” value on AAD1 (v1) (setting [4]) stood at 0.408; at AAD1 (v1) (setting [3]) it was 0.14. Besides, at AAD1 (v1) (Table 4, substrate 1 mM), the “A510, AAD1 (10x)” value was determined as 0.597. Further, the “A510 AAD2” value on AAD2 (v1) is 0.

On to `O=C(O)COc1ccc(Oc2ncc(C(F)(F)F)cc2Cl)cc1` [haloxyfop- oxyacetate], for which the “activity of purified AAD1 (v1) on substrate” value on AAD1 (v1) is “cleaved very slowly”. Besides, the “A510, AAD1” value was 0.004 at AAD1 (v1) (setting [4]) and 0 at AAD1 (v1) (setting [3]). At AAD1 (v1) (Table 4, substrate 1 mM), the “A510, AAD1 (10x)” value is given as 0.053. Besides, the “A510 AAD2” value at AAD2 (v1) is listed as 0.22.

`C[C@@H](Oc1ccc(Oc2cnc3cc(Cl)ccc3n2)cc1)C(=O)O` [(R)- quizalofop]: the “A510, AAD1” value came out at 0.43 on AAD1 (v1) (setting [4]) and 0.27 on AAD1 (v1) (setting [3]). In addition, the “A510, AAD1 (10x)” value on AAD1 (v1) (Table 4, substrate 1 mM) is recorded as 2.1. For the same compound, at AAD1 (v1) (purified AAD1 (v1)), the kcat stood at 0.315 s⁻¹. For the same compound, the “Vmax ± SE” value on AAD1 (v1) (purified AAD1 (v1), Michaelis-Menten fit) is 0.57 ± 0.03 μmol min^−1 mg^−1 AAD1. At AAD2 (v1), the “A510 AAD2” value is recorded as 0.01.

In the case of `Cc1cc(Cl)ccc1OC(C)C(=O)O` (racemic) [(R,S)-mecoprop], the “Ave % Injury 14DAT” value in experiment [1] (12.5 g ae/ha foliar) is listed as 3%; in experiment [1] (25 g ae/ha foliar), 0%; in experiment [1] (50 g ae/ha foliar) it was 0%; in experiment [1] (100 g ae/ha foliar) it was 0%; in experiment [1] (200 g ae/ha foliar) it was 3%; in experiment [1] (400 g ae/ha foliar), 0%. Further, the “Ave % Injury 14DAT” value is 0% in experiment [1] (800 g ae/ha foliar); 0% in experiment [1] (1600 g ae/ha foliar); 0% in experiment [2] (12.5 g ae/ha foliar); 2% in experiment [2] (25 g ae/ha foliar); 17% in experiment [2] (50 g ae/ha foliar); 33% in experiment [2] (100 g ae/ha foliar). Also, the “Ave % Injury 14DAT” value in experiment [2] (200 g ae/ha foliar) is recorded as 62%; in experiment [2] (400 g ae/ha foliar), 78%; in experiment [2] (800 g ae/ha foliar), 93%; in experiment [2] (1600 g ae/ha foliar), 100%. The “activity of AAD1 (v1) E. coli extract on substrate” value on AAD1 (v1) (15 min) is reported as “cleaved”. In addition, the “A510, AAD1” value at AAD1 (v1) (Table 3, substrate 1 mM, 1 μg purified AAD1 (v1) per 0.16 ml assay, 15 min) amounted to 0.341. Besides, the “A510, AAD1 (10x)” value at AAD1 (v1) (Table 3, substrate 1 mM, 15 min) amounted to 2.085. Besides, the “wt ARBTH root 150” value with wt ARBTH amounted to 0.01 ppm. Besides, in the experiment with wt ARBTH, the “wt ARBTH shoot 150” value is listed as 2 ppm. Also, the root ratio in the experiment with PAAD1.315.064 ARBTH (setting [5]) is recorded as 150. Also, the shoot ratio in the experiment on PAAD1.315.064 ARBTH (setting [5]) is on record as 12.5. Further, in the experiment with PAAD1.315.064 ARBTH, the “PAAD1.315.064 ARBTH root 150” value is 1.5 ppm. Besides, the “PAAD1.315.064 T3 ARBTH shoot 150” value with PAAD1.315.064 ARBTH is reported as 25 ppm.
